Reference: patent US20140105959A1, “METHOD AND DEVICE FOR REDUCING DERMAL FILLER ADVERSE EVENTS” (ALLERGAN, INC., priority 2012, published 2014)

How the values were obtained:
[1] = test system: hairless rat skin; test: bruising after dermal filler administration at patch-treated versus untreated rat skin; assay type: in vivo; conditions: cotton fabric patch, phenylephrine 400 ppm, 15 minutes, then dermal filler, compared with adjacent untreated skin
[2] = test system: hairless rat skin; test: vasoconstriction in hairless rat skin after topical phenylephrine patch; assay type: in vivo
Description: In certain embodiments, mechanisms are provided that are effective to actively enhance transport of vasoactive drugs across the skin (mechanisms will be referred to as “enhancers” in the rest of the invention). For example, in one embodiment of the invention, the method includes the step of treating a skin site selected for dermal filler administration with a mechanism effective to enhance drug delivery across the skin prior to treating the skin site with the device or compound containing the active agent effective to reduce or ameliorate the adverse event. For example, the mechanism, hereinafter sometimes referred to as “mechanical enhancer” may comprise a mechanical device capable of gently stripping of the superficial skin layers from the epidermis. For example, the mechanism may be an adhesive tape or abrasive surface. It has been discovered that use of such mechanisms increase phenylephrine diffusion through the skin and result in significant reduction in skin's vasoconstriction time (e.g. 5 minutes) by phenylephrine using the same patch device. In certain embodiments, it might be useful to apply the mechanism, enhancement device, after filler administration, preferably in devices where the vasoactive drug may interfere with safety and/or potency of fillers. […]

[3] = test system: nasolabial folds; test: visible bruising after Juvederm XC injection into patch-treated nasolabial folds of a patient; assay type: in vivo, human; conditions: microneedle roller pretreatment, cotton-based patch about 300 ppm phenylephrine for about 7 minutes, then 0.6 cc Juvederm XC per nasolabial fold
Description: Their physician applies, along both nasolabial folds, a tool having a rolling head with numerous microneedles to penetrate the dermis with numerous punctures about one millimeter in depth. They then apply a phenylephrine-containing cotton-based patch, formulated to about 300 ppm phenylephrine, in accordance with the invention, on the skin along the left nasolabial fold, in a way that covers the entire injection site. The patch is left in place for about 7 minutes. The physician removes the patch and then carefully injects 0.6 cc of a HA-based dermal filler, specifically, Juvederm® XC, (available from Allergan, Inc., Irvine, Calif.) into the phenylephrine-treated dermis just beneath the fold line, using a 27 gauge needle. The treatment procedure is repeated for the right nasolabial fold, for example, using another identical patch and another 0.6 cc Juvederm® XC.

For `CNC[C@H](O)c1cccc(O)c1` [phenylephrine], the “bruising at the vasoconstricted skin site, particularly along the line of injection” value [1] was “lower than at the untreated skin site”, the “vasoconstriction in skin regions directly underneath the patch” value ([2]; cotton fabric patch, phenylephrine 400 ppm, removed after 15 minutes, hairless rat) was “significant vasoconstriction” and the “time to release, diffuse and cause significant vasoconstriction” value ([2]; phenylephrine formulated at 100 ppm in a topically placed cotton gauze, hairless rat skin) was “about 10 minutes”. For the same compound, the “skin's vasoconstriction time” value ([2]; same patch device, after mechanical enhancer (adhesive tape or abrasive surface stripping superficial skin layers)) was 5 min, the “bruising one week after the procedure” value ([3]; one week) was “no bruising, nor red marks” and the “visible bruising three days after the treatment procedure” value ([3]; three days) was “does not notice any visible bruising”.
